The test system of series [1] is HepG2 spheroids. In words: ALB secretion (Human Albumin ELISA) in the DILI toxicity test on HepG2 spheroids. The series is classed as cell-based. As to conditions: 10*Cmax, end of Day 3 (72 h), individual replicates n = 3, unit from Fig. S3 legend. As to the method:
(§1) The HepG2 cells were donated by Avatarget Co., Ltd (Suzhou, China). The HepG2 cells were cultured in DMEM (Gibco, 10567014) containing 10% fetal bovine serum (GIBCO, A3161001C), and 1×penicillin/streptomycin (Gibco, 15140148). HepG2 cells (70–80% cell confluency) were washed twice in sterile PBS and then dissociated with 1 mL 0.25% EDTA-Trypsin. Using 3×volume of the complete medium neutralized with reagent above, count cells and ensure 10,000 cells/well. The desired volume of cell suspension was inoculated into the 200 μL/well of ultra-low attachment microplate (Corning, 7007). The plate was centrifuged at 1500 rpm for 10 min and then incubated in an incubator at 37 °C in 5% CO2 for 4 days. The medium is changed every other day at a 1:1 ratio.
(§2) The peak serum concentration (Cmax) can intuitively reflect the actual presence level of a drug in the body’s circulatory system. Therefore, we used 1*Cmax as a reference for the drug dosage to better approximate the in vivo conditions. On this basis, we selected 10*Cmax as the reference concentration, taking into account the coefficient of variation in toxicology (individual variability: tenfold). […] Each drug was tested in triplicate. Plates were dosed with the drug for 72 h in each cycle (referred to as Day 0 through Day 3). […] At the end of day 3, the supernatant from each well was collected to determine ALB secretion, and the spheroids from each well were used for the cell viability assay. The Cmax information of the drugs is shown in Supplementary Table 3.
The culture supernatants were collected and stored at −80 °C until use. The supernatant was assayed with a Human Albumin ELISA Kit (PROTEINTECH, KE00076). Assays were performed according to the manufacturer’s instructions.

Series [2] deals with HepG2 spheroids. In words: Cellular viability (ATP, CellTiter-Glo) in the DILI toxicity test on HepG2 spheroids. The class given is cell-based. As to conditions: 10*Cmax, end of Day 3 (72 h), individual replicates n = 3, unit from Fig. S4 legend. On the procedure:
as §1, §2
CellTiter-Glo (CTG, G9681, PROMEGA) reagent and culture medium were added to each well in a 1:1 ratio. The contents were mixed for 2 min to induce cell lysis. The plate was incubated at room temperature for 10 min to stabilize the luminescent signal. Recording of luminescence was carried out with BioTek Microplate Reader Synergy H1 (Vermont, USA).

The conditions of series [3]: cited from earlier work; for Label section / Severity class: DILIrank; for Label section: FDA drug label section; for DILIrank: FDA DILIrank category based on clinical data.
For series [4] the following is noted: peak serum concentration used as dosing reference; source not given; cited from earlier work.

Each structure is given as a SMILES string. Values joined by “and” are separate entries in the source; they are usually repeats but may differ in a detail not shown here. Equal entries are not always repeated.

Broadly, the Cmax is the maximum level reached in the sampled fluid or tissue.

As for `O=P1(N(CCCl)CCCl)NCCCO1` (stereo not shown) [Cyclophosphamide], the ALB inhibition in the series with HepG2 spheroids [1] was 90% and 54% and 78%. The ATP inhibition with HepG2 spheroids [2] was 36% and 26% and 38%. Besides, in series [3], the Label section result was “Adverse reactions”, the Severity class is on record as 5 and the DILIrank result was “vLess-DILI-Concern”. In addition, in series [4], the highest concentration (Cmax) was 69000 ng/mL.

As for `C[C@]12CCC(=O)C=C1CC[C@@H]1[C@@H]2[C@@H](O)C[C@@]2(C)[C@H]1CC[C@]2(O)C(=O)CO` [Hydrocortisone], in the series with HepG2 spheroids [1], the ALB inhibition is -33% and -30% and -26%. The ATP inhibition with HepG2 spheroids [2] was -17% and -20% and -30%. Moreover, in series [3], the Label section result is recorded as “No match”, the Severity class was 0 and the DILIrank entry is on record as “vNo-DILI-Concern”. Besides, the highest concentration (Cmax) in series [4] is 305 ng/mL.

For the compound `N[C@@H]1[C@H]2CN(c3nc4c(cc3F)c(=O)c(C(=O)O)cn4-c3ccc(F)cc3F)C[C@@H]12` [Trovafloxacin], in the series with HepG2 spheroids [1], the ALB inhibition was 28% and 76% and 63%. Also, in the series with HepG2 spheroids [2], the ATP inhibition is 52% and 58%. Besides, in series [3], the Label section result was “Withdrawn”. Moreover, the peak concentration (Cmax) in series [4] is 2090 ng/mL.
